# Patent publication US8604190B2, “Hetero isonipecotic modulators of vanilloid VR1 receptor” (Janssen Pharmaceutica NV, priority 2004, dated 2013)
# Biological target: T1, human VR1 (Homo sapiens, UniProt Q8NER1)
# T1 construct: expressed in transfected cells; host or cells: A431 cells
# Assay: Human VR1 functional assay (FLIPR, intracellular Ca++)
# Assay type: cell-based
# Settings: A431 cells expressing human VR1, Ca++-sensitive dye, dose-response
# Procedure: The compounds of the invention were tested using a high throughput VR-1 FLIPR assay.
# Human VR1 Functional Assay
# The functional activity of the test compounds was determined by measuring changes in intracellular calcium concentration using a Ca^++-sensitive fluorescent dye and FLIPR™ technology. Increases in Ca^++ concentration were readily detected upon challenge with resiniferatoxin (RTX). A431 cells expressing human VR1 were seeded on polystyrene 384-well back walled clear bottom assay plates coated with collagen and incubated for 3-4 hours at 37° C. with 5% CO2 in DMEM. Plates were loaded with […] of 2× Dye Solution, incubated for 1-1.5 hours and subsequently tested for agonist-induced increases in intracellular Ca^2+ levels using FLIPR™ technology. Cells were challenged with test compounds (at varying concentrations) and intracellular Ca^++ was measured prior to the addition of resiniferatoxin to all wells to elicit ˜80% maximal response. EC50 or IC50 values were determined from dose-response studies.
# T1 sequence (Q8NER1 whole entry): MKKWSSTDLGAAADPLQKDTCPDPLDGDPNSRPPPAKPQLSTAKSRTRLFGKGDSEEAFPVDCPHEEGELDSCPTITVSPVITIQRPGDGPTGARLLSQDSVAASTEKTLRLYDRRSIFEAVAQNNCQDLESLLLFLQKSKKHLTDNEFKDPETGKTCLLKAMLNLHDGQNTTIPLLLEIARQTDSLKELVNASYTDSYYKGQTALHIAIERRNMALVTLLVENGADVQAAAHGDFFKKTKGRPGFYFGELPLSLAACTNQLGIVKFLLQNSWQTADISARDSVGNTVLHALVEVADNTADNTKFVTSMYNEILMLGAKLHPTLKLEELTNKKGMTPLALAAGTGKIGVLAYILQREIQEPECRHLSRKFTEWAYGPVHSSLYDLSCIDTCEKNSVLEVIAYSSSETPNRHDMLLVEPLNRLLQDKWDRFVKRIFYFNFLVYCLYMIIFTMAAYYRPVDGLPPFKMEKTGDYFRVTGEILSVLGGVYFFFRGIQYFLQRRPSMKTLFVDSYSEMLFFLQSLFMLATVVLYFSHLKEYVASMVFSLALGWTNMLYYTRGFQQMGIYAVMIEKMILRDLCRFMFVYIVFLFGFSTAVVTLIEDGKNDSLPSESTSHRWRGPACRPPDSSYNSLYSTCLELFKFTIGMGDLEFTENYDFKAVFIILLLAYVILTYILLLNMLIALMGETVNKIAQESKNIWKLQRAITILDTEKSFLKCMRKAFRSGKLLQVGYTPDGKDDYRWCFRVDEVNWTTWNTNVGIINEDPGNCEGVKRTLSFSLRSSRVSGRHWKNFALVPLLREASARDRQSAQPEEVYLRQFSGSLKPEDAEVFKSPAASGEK
row,SMILES,EC50 [nM]
1,Cc1cccc(N2CCC(C(=O)N3CCCCC3)CC2)c1C [Compound 14],1640
2,COc1cccc(N2CCC(C(=O)N3CCOCC3)CC2)c1 [Compound 27],3530
3,Cc1ccccc1N1CCC(C(=O)N2CCSC2)CC1 [Compound 37],5400
4,Cc1ccc(N2CCC(C(=O)N3CCCCC3)CC2)cc1C [Compound 9],1040
5,O=C(C1CCN(c2cc(F)cc(F)c2)CC1)N1CCCCC1 [Compound 20],2050
6,CC(=O)N1CCN(C(=O)C2CCN(c3cccc(C)c3C)CC2)CC1 [Compound 31],4000
7,Cc1cccc(N2CCC(C(=O)N3CCSC3)CC2)c1C [Compound 16],1890
8,O=C(C1CCN(c2cccc3ccccc23)CC1)N1CCSC1 [Compound 24],3100
9,Cc1ccc(N2CCC(C(=O)N3CCOCC3)CC2)cc1F [Compound 19],2000
10,"O=C(C1CCN(c2cccc(-c3ccccc3)c2)CC1)N1CCOCC1 [Compound 3, (1-Biphenyl-3-yl-piperidin-4-yl)-morpholin-4-yl-methanone]",270
11,Cc1cccc(N2CCC(C(=O)N3CCSCC3)CC2)c1C [Compound 7],760
12,COc1cccc(N2CCC(C(=O)N3CCSCC3)CC2)c1 [Compound 34],4370
13,Cc1ccccc1N1CCC(C(=O)N2CCC(O)CC2)CC1 [Compound 11],1420
14,O=C(C1CCN(c2cc(F)cc(F)c2)CC1)N1CCC(O)CC1 [Compound 23],2800
15,O=C(C1CCN(c2cc(F)cc(F)c2)CC1)N1CCSCC1 [Compound 18],1970
16,Cc1ccccc1N1CCC(C(=O)N2CCCC2)CC1 [Compound 38],7840
17,Cc1cccc(N2CCC(C(=O)N3C(C)CCCC3C)CC2)c1C (centres unmarked) [Compound 35],4600
18,Cc1cccc(N2CCC(C(=O)N3CCOCC3)CC2)c1 [Compound 32],4100
19,"Cc1ccc(N2CCC(C(=O)N3CCSCC3)CC2)cc1F [Compound 4, [1-(3-Fluoro-4-methyl-phenyl)-piperidin-4-yl]-thiomorpholin-4-yl-methanone]",270

row,SMILES,EC50 [nM]
1,"Cc1cccc(N2CCC(C(=O)N3CCC(O)CC3)CC2)c1C [Compound 2, [1-(2,3-Dimethyl-phenyl)-piperidin-4-yl]-(4-hydroxy-piperidin-1-yl)-methanone]",240
2,Cc1ccccc1N1CCC(C(=O)N2CCCCC2)CC1 [Compound 26],3260
3,"Cc1ccc(N2CCC(C(=O)N3CCSCC3)CC2)cc1C [Compound 6, [1-(3,4-Dimethyl-phenyl)-piperidin-4-yl]-thiomorpholin-4-yl-methanone]",340
4,O=C(C1CCN(c2cc(F)cc(F)c2)CC1)N1CCOCC1 [Compound 15],1850
5,Cc1ccc(N2CCC(C(=O)N3CCOCC3)CC2)cc1C [Compound 12],1500
6,"O=C(C1CCN(c2cccc(C(F)(F)F)c2)CC1)N1CCOCC1 [Compound 5, [1-(3-Trifluoromethyl-phenyl)-piperidin-4-yl]-morpholin-4-yl-methanone]",330
7,Cc1ccc(N2CCC(C(=O)N3CCC(O)CC3)CC2)cc1C [Compound 8],910
8,Cc1cccc(N2CCC(C(=O)N3CCC(O)C3)CC2)c1C (centres unmarked) [Compound 36],5200
9,Cc1ccc(N2CCC(C(=O)N3CCCCC3)CC2)cc1F [Compound 10],1300
10,Cc1ccc(N2CCC(C(=O)N3CCC(O)CC3)CC2)cc1F [Compound 22],2300
11,Cc1ccccc1N1CCC(C(=O)N2CCCCCC2)CC1 [Compound 25],3200
12,Cc1cccc(N2CCC(C(=O)N3CCCCC3)CC2)c1 [Compound 29],3800
13,"Cc1ccccc1N1CCC(C(=O)N2CCSCC2)CC1 [Compound 1, (1-o-Tolyl-piperidin-4-yl)-thiomorpholin-4-yl-methanone]",230
14,CC(=O)N1CCN(C(=O)C2CCN(c3cccc(-c4ccccc4)c3)CC2)CC1 [Compound 30],3800
15,O=C(C1CCN(c2cccc(C(F)(F)F)c2)CC1)N1CCCCC1 [Compound 28],3700
16,O=C(C1CCN(c2cccc(-c3ccccc3)c2)CC1)N1CCSCC1 [Compound 21],2200
17,O=C(C1CCN(c2cccc(-c3ccccc3)c2)CC1)N1CCCCC1 [Compound 33],4100
18,Cc1ccccc1N1CCC(C(=O)N2CCOCC2)CC1 [Compound 13],1590
19,O=C(C1CCN(c2cccc3ccccc23)CC1)N1CCCCC1 [Compound 17],1910
